From ChEMBL document CHEMBL1155332 (Bioorg Med Chem Lett, 2009)

How the values were obtained:
Assay type in all cases: ADME, organism-based
[1] = Clearance in iv dosed rat; conditions: in vivo
[2] = Bioavailability in […] rat; conditions: in vivo
[3] = Cmax in squirrel monkey at 10 mg/kg; parameters: dose 10 mg/kg; conditions: saimiri, in vivo
[4] = Cmax in squirrel monkey at 2 mg/kg; parameters: dose 2 mg/kg; conditions: saimiri, in vivo
[5] = Cmax in squirrel monkey at 0.4 mg/kg; parameters: dose 0.4 mg/kg; conditions: saimiri, in vivo

| clearance [1] [mL/min/kg] | bioavailability [2] [%] | Cmax [3] [nM] | Cmax [4] [nM] | Cmax [5] [nM] | SMILES |
| --- | --- | --- | --- | --- | --- |
| 11 | 69 | – | – | – | CC(C)(c1cc(-c2cccc(CC(F)(c3ccc(S(C)(=O)=O)cc3)C(O)(C3CC3)C3CC3)c2)c2ncccc2c1)S(C)(=O)=O.Cl (single isomer, unassigned) |
| 7 | 100 | 3800 | – | – | Cc1noc(/C(=C/c2cccc(-c3cc(C(C)(C)S(C)(=O)=O)cc4cccnc34)c2)c2ccc(S(C)(=O)=O)cc2)n1 |
| 3 | 99 | – | 1900 | – | CC(C)(c1cc(-c2cccc(CC(F)(c3ccc(S(C)(=O)=O)cc3)S(=O)(=O)C3CC3)c2)c2ncccc2c1)S(C)(=O)=O (single isomer, unassigned; Enantio B) |
| 8 | 99 | – | – | – | CC(C)(c1cc(-c2cccc(CC(F)(c3ccc(S(C)(=O)=O)cc3)C(O)(C3CC3)C3CC3)c2)c2ncccc2c1)S(C)(=O)=O.CCl (centres undefined) |
| 76 | 1 | – | – | – | CC(C)(c1cc(-c2cccc(CC(c3ccc(S(C)(=O)=O)cc3)S(C)(=O)=O)c2)c2ncccc2c1)S(C)(=O)=O (centres undefined) |
| 9 | 36 | – | – | – | CC(C)(c1cc(-c2cccc(CC(F)(c3ccc(S(C)(=O)=O)cc3)S(=O)(=O)C3CC3)c2)c2ncccc2c1)S(C)(=O)=O.Cl (single isomer, unassigned) |
| 38 | 99 | – | – | 100 | CC(C)(c1cc(-c2cccc(CC(F)(c3ccc(S(C)(=O)=O)cc3)C(O)(C3CC3)C3CC3)c2)c2ncccc2c1)S(C)(=O)=O (single isomer, unassigned; Enantio B) |
| 9 | 53 | – | – | – | CC(C)(c1cc(-c2cccc(CC(F)(c3ccc(S(C)(=O)=O)cc3)S(C)(=O)=O)c2)c2ncccc2c1)S(C)(=O)=O (centres undefined) |
| 50 | 21 | – | – | – | CC(C)(O)C(Cc1cccc(-c2cc(C(C)(C)S(C)(=O)=O)cc3cccnc23)c1)c1ccc(S(C)(=O)=O)cc1 (centres undefined) |
| 17 | 84 | – | – | – | CC(C)(O)C(F)(Cc1cccc(-c2cc(C(C)(C)S(C)(=O)=O)cc3cccnc23)c1)c1ccc(S(C)(=O)=O)cc1 (centres undefined) |
| 51 | 9 | – | – | – | CC(C)(c1cc(-c2cccc(CC(CO)c3ccc(S(C)(=O)=O)cc3)c2)c2ncccc2c1)S(C)(=O)=O (centres undefined) |

| SMILES | clearance [1] [mL/min/kg] | bioavailability [2] [%] | Cmax [3] [nM] | Cmax [4] [nM] | Cmax [5] [nM] |
| --- | --- | --- | --- | --- | --- |
| COP(=O)(OC)C(F)(Cc1cccc(-c2cc(C(C)(C)S(C)(=O)=O)cc3cccnc23)c1)c1ccc(S(C)(=O)=O)cc1 (centres undefined) | 177 | 51 | – | – | – |
| COP(=O)(OC)C(Cc1cccc(-c2cc(C(C)(C)S(C)(=O)=O)cc3cccnc23)c1)c1ccc(S(C)(=O)=O)cc1 (centres undefined) | 48 | 3 | – | – | – |
